Experimental data reported in patent publication US20190153021A1, “THERAPEUTIC COMPOUNDS” (UNIVERSITY OF IOWA RESEARCH FOUNDATION, priority 2015, published 2019).
pIC50: −log10 of the molar value.

Tests used:
[1] = simplified steroidal aglycone; cited from earlier work
[2] = In vivo efficacy of OSW-1
[3] = Metabolic stability and pharmacokinetics, cleavage of ester groups in mouse blood; format: in vitro ADME
[4] = system: NCI 60 cell-line tumor panel; settings: cited from earlier work
dormant cancer cells = settings: independent of cell cycle; cited from earlier work

SMILES	in vitro anticancer activity compared with compound 1 [1]	in vivo efficacy [2]	pharmacokinetics (PK) [3]	metabolic stability: cleavage of the two ester groups ([3]; enzymes in mouse blood, gives major metabolite 2)	pIC50 ([4]; mean over NCI 60-cell in vitro screen)	anticancer activities, times more potent than many well-known anticancer drugs in clinical use ([4]; relative potency)	concentration that effectively kills dormant cancer cells (dormant cancer cells)
COc1ccc(C(=O)OC2C(OC3C(O)COC(O[C@H]4C[C@@H]5[C@H](CC[C@H]6[C@H]5CC=C5C[C@@H](O)CC[C@@]56C)[C@H]4[C@H](C)CCCC(C)C)C3OC(C)=O)OCC(O)C2O)cc1 (stereo partly shown) [Compound 3]	similar						
COc1ccc(C(=O)O[C@H]2[C@H](O[C@@H]3[C@@H](OC(C)=O)[C@H](O[C@H]4C[C@H]5[C@@H]6CC=C7C[C@@H](O)CC[C@]7(C)[C@H]6CC[C@]5(C)[C@@]4(O)[C@H](C)C(=O)CCC(C)C)OC[C@@H]3O)OC[C@@H](O)[C@@H]2O)cc1 [OSW-1]		relatively weak	poor	quickly cleaved	9.11	10-100 times	sub-nM
